Literature values in US20210186960A1, “MODULATORS OF INDOLEAMINE 2,3-DIOXYGENASE” (GLAXOSMITHKLINE INTELLECTUAL PROPERTY DEVELOPMENT LIMITED, priority 2017, published 2021).

Legend:
[1] = system: conversion of T cells into CD4+FoxP3+ Tregs; conditions: co-culture of DCs and naive CD4+CD25- T cells; cited from earlier work
PANO2 pancreatic cells = conditions: orally dosed, cited from earlier work

NS(=O)(=O)NCCNc1nonc1C(=NO)Nc1ccc(F)c(Br)c1 [INCB204360]
conversion of T cells into CD4+FoxP3+ Tregs [1]: blocked the conversion
inhibition of tumor growth (PANO2 pancreatic cells; PANO2 syngeneic model, immunocompetent mice): significant dose-dependent inhibition of tumor growth
effect on tumor growth (PANO2 pancreatic cells; same tumor implanted in immune-deficient mice): without effect
